The subject of this series is human gastric cancer MGC-803 cells.

Procedure: Pharmaceutical reagents were divided into four groups including ZnHgSe quantum dot group, DMF group, DMF-QD group and blank control group. Human gastric cancer MGC-803 cells in exponential phase were digested with trypsin, followed by addition of medium containing 10% fetal bovine serum to make a single cell suspension. The cells were seeded in a 96-well cell culture plate (100 μL of cell suspension was added to each well, containing 9×10^3 cells) and cultured in an incubator of 37° C. and 5% CO2 for 24 h until the cells adhered to the wall of the 96-well plate. Three groups of drug solutions with concentration gradients were added (ZnHgSe quantum dot gradient: 2400 μg·mL^−1, 1200 μg·mL^−1, 600 μg mL^−1, 300 μg·mL^−1, 150 μg·mL^−1, and 75 μg·mL^−1; DMF gradient: 800 μg mL^−1, 400 μg·mL^−1, 200 μg·mL^−1, 100 μg·mL^−1, 50 μg·mL^−1, and 25 μg·mL^−1; corresponding DMF-QD gradient was determined according to DMF concentration by equivalent conversion). Each group was repeated with 6 wells, with an additional zero-adjustment well and a control well. […] The absorbance value OD of each well was measured by an enzyme-linked immunosorbent detector at a wavelength of 490 nm, and the cell growth inhibition rate (IC50) was calculated. IC50 value was calculated according to the modified Karber's method: […]

Take “dextran-magnetic layered double hydroxide-fluorouracil [DMF]”: the “cytotoxicity per unit mass relative to quantum dots” value is “about 2.6 times”.

Values taken from US11007196B1, “Method for preparing composition of matter comprising fluorouracil and zinc-mercury-selenium quantum dot” (priority 2020, dated 2021).
